These results are taken from patent US7465814B2, “Sulfonate compound and fluorescent probe using the same” (priority 2003, dated 2008).

Molecules are shown by their SMILES. Where two headings read alike, the source gives them in different places.

A short description of data set [1]: Fluorescent response to XO-HPX system, 96-well microplate (Table 1). The format is biochemical. The following applies: relative fluorescence intensity, blank = 10, probe 21.3 μM, 10 minutes. How it is done:
(§1) Moreover, in other conditions than those of the above-described tests, reactivity of all of the compounds 1a to 1d with H2O2, other various kinds of nucleophilic agents, reducing agents and the like also was tested, respectively. More specifically, fluorescent responses of 1a to 1d with respect to a XO-HPX system, a XO-HPX-SOD system, H2O2, ascorbic acid, 1,4-hydroquinone, propylamine, diethylamine, glucose, esterase, a cytochrome P450 reductase+NADPH system, and a diaphorase+NADH system were measured, respectively. Operational processes thereof will be described below. Firstly, 1a to 1d and the above-described reagents were dissolved in HEPES of 10 mM having a pH of 7.4 so as to prepare solutions, respectively. Next, a 96 wellmicroplate was provided, where any of the solutions of 1a to 1d (25 μM, 170 μL) was poured into each of the wells, and furthermore, 30 μL of a blank solution or 30 μL of the solution of the reagent to be reacted therewith was added thereto. Final concentrations of the solutions in the wells were adjusted so that concentrations of the solutions of 1a to 1d respectively could be 21.3 μM, that of XO could be 13.1 mU/mL, those of HPX, H2O2, ascorbic acid, 1,4-hydroquinone, propylamine, diethylamine, glucose, NADPH and NADH respectively could be 50 μM, that of cytochrome P450 reductase could be 68 mU/mL, that of diaphorase could be 65 mU/mL, and that of esterase could be 0.5 U/mL, respectively. Then, after they reacted in the wells at 37° C. for 10 minutes, fluorescent responses were measured respectively. Fluorescence intensity measurement was conducted by using an ETC-272 Peltier thermostatted single cell holder (trade name) manufactured by JASCO Corporation or a SpectraMax GeminiEM fluorescence plate reader (trade name) manufactured by Molecular Devices Corporation provided with a FP-750 spectrofluorometer (trade name) manufactured by JASCO Corporation, and by setting excitation wavelengths and emission wavelengths so that those of 1a, 1b and 1c respectively could be 485 nm and 515 nm, and those of 1d respectively could be 511 nm and 540 nm.

A short description of data set [2]: Fluorescent response to diethylamine (Table 1). The format is biochemical. The settings on record: relative fluorescence intensity, blank = 10; probe 21.3 μM, diethylamine 50 μM, 37° C., 10 minutes. How it is done: as §1
Data set [3] is described as follows: Fluorescent response to glucose (Table 1). The settings on record: relative fluorescence intensity, blank = 10; probe 21.3 μM, glucose 50 μM, 37° C., 10 minutes. The format is biochemical. How it is done:
as §1

Data set [4] deals with neutrophils stimulated by phorbol myristate acetate (PMA). The data set is described as follows: Superoxide detection in PMA-stimulated neutrophils (FIG. 2, FIG. 3). The data set is classed as cell-based, human. The following applies: probe 25 μM solution 50 μL, PMA 0.64 μM solution 50 μL, 37° C., 120 minutes. The source says: It is known that, if neutrophils are stimulated by phorbol ester, superoxide is produced. […] A specific testing method will be described below.
Firstly, whole blood donated by a good-health volunteer was heparinized, and it was subjected to centrifugal separation after adding a Mono-Poly resolving medium manufactured by Dainippon Pharmaceutical Co. Ltd. thereto. After the separation, cells were washed with PBS (−) twice, were suspended again at a concentration of 1.0×10^6 or 1.0×10^5 cells/mL by using PBS (+), and were maintained under an ice-cold condition until they were used. […] Fluorescence intensity measurement was conducted immediately (measurement at the time 0), and thereafter, incubation was conducted at 37° C. for 120 minutes. During the incubation, a change of the fluorescence intensity of the cells was measured once every 30 minutes. All of the measurements were conducted by using a CytoFluor II multiwell fluorescence plate reader (trade name) manufactured by PerSeptive Biosystems, Inc. in the U.S., by setting an excitation filter and an emission filter at 485±20 nm and 530±25 nm, respectively.
A horizontal axis of the graph denotes an incubation time (minute), and a vertical axis thereof denotes a fluorescence intensity (au). […]

The subject of the next data set is neutrophils. The following applies: for cell viability after the incubation with respect to before the incubation: 37° C., 120 minutes. The procedure:
Moreover, a toxicity of the compound 1d with respect to the neutrophils was evaluated by estimating cell viability by a trypan blue dyeing method. More specifically, the neutrophils (1.0×10^5 cells) were incubated at 37° C. for 120 minutes in a glass test tube coated with human serum albumin, in the presence of both of the compound 1d (6.25 μM) and PMA (0.16 μM), in the presence of either of them, and in the absence of them, respectively. Then, cell viability after the incubation with respect to cell viability before the incubation was measured.

A short description of data set [5]: Reactivity with superoxide and glutathione (FIG. 4). The format is biochemical. The following applies: same conditions as 1-3 Superoxide-selectivity (2). The procedure: as §1
The reactivity of each of the compounds 1d, 5a, 6a, 7 and 8a with respect to superoxide and glutathione (GSH) that is a kind of thiol was tested under the same conditions as those of [1-3. Superoxide-selectivity (2)] in Example 1. […] A vertical axis thereof denotes a fluorescence intensity, which is represented in % of control.

With `O=C1OC2(c3ccccc31)c1cc(F)c(OS(=O)(=O)c3ccc([N+](=O)[O-])cc3[N+](=O)[O-])c(F)c1Oc1c2cc(F)c(OS(=O)(=O)c2ccc([N+](=O)[O-])cc2[N+](=O)[O-])c1F` [Compound 1d], in data set [1] (XO 13.1 mU/mL, HPX 50 μM, HEPES pH 7.4, 37° C.), the “fluorescent response, XO—HPX” value is 554. In addition, the “fluorescent response, XO—HPX—SOD” value in data set [1] (XO-HPX with SOD, 37° C.) is recorded as 60. For the same compound, in data set [2], the “fluorescent response, diethylamine” value came to 11. Also, in data set [3], the “fluorescent response, glucose” value worked out at 10. Further, the “detection of superoxide from PMA-stimulated neutrophils” value in data set [4] is reported as “could detect superoxide with high sensitivity in a cell system also”. For the same compound, the “cell viability after the incubation with respect to before the incubation” value is given as 97% in the data set with neutrophils (in the presence of both 1d (6.25 μM) and PMA (0.16 μM)); 95% in the data set on neutrophils (substance only (1d 6.25 μM or PMA 0.16 μM), 1.0×10^5 neutrophils). The “toxicity with respect to the neutrophils” value in the data set on neutrophils (incubation of 120 minutes) is listed as “did not show any significant toxicity”. In addition, in data set [5], the “selectivity (specificity), superoxide versus glutathione, FIG. 4” value was “excellent superoxide-selectivity”.
